According to US20190000847A1, “THERAPEUTIC AGENT FOR A WOUND” (DAIICHI SANKYO COMPANY LIMITED, priority 2015, published 2019):
Like-named read-outs stand apart in the source and are kept apart here.

Experiments:
[1] = system: db/db mice; settings: male db/db mice, 8 mm full thickness skin wound
Method: A full thickness skin wound was prepared on the backs of 9-week-old male db/db mice. The back of each mouse was shaved with an electric shaver under isoflurane anesthesia, and a full thickness skin wound of 8 mm in diameter was created on the back with a disposable biopsy punch. Compound A was administered dropwise (0.04 mL per wound site) at a concentration of 0.5 mM to the wound site once a day over 4 days from the wound creation date and protected with a dressing (Tegaderm Transparent Dressing). The negative control used was a test substance solubilizing solvent (10% Lutrol F127, 2% propylene glycol, 20 mM Tris buffer (pH 8.5)). 1, 4, 7, 9, 11, 15, and 18 days after the wound creation date, the wound site was photographed with a digital camera, and the wound area was calculated using image analysis software. When the wound area of the wound creation date was defined as 100%, the area at each day of photographing was calculated in terms of the percentage (%) of the area of the wound creation date. The test was conducted with 8 animals per group.

[2] = system: SD rats; settings: male SD rats
Method: Pressure ulcer was created by pressure load on the right third trochanters of 8-week-old male SD rats. The skin on the right third trochanter of each rat was shaved with an electric shaver. A pressure of 902.3 to 911.2 g/cm^2 was loaded on the right third trochanter for 24 hours under anesthesia with pentobarbital and allobarbital. 2 days after cancellation of the pressure load, necrotic tissues were surgically removed under isoflurane anesthesia. When the necrotic tissue removal date was defined as day 1, compound A was administered dropwise (0.02 to 0.06 mL per wound site) at a concentration of 0.5 mM to the wound site once a day and protected with gauze and a waterproof film. The negative control used was a test substance solubilizing solvent (10% Lutrol F127, 2% propylene glycol, 20 mM Tris buffer (pH 8.5)). The major axis and minor axis of the wound surface were measured every day with a vernier caliper, and the wound area (major axis×minor axis) was calculated. When the wound area of day 1 was defined as 100%, the calculated area at each day was calculated in terms of the percentage (%) of the area of the wound creation date. The test was conducted with 10 animals per group.

[3] = system: db/db mice; assay: Test Example 2: wound healing experiment, full thickness skin wound; format: in vivo; settings: male db/db mice; for area under the curve (AUC) of the percent wound area / number of days required for 50% reduction in the percent wound area / 75% healing rate (proportion of individuals that achieved 75% or more reduction in the percent wound area at day 14): full thickness skin wound; for area under the curve (AUC) of the percent wound area: 0.15 mM dropwise; for number of days required for 50% reduction in the percent wound area / 75% healing rate (proportion of individuals that achieved 75% or more reduction in the percent wound area at day 14): compound B 0.15 mM dropwise; for number of days required for 50% reduction in the percent wound area: bFGF sprayed five times (approx. 30 μg), negative control 11.0 days (FIG. 4B); for 75% healing rate (proportion of individuals that achieved 75% or more reduction in the percent wound area at day 14): bFGF spray, negative control 16.7% (FIG. 4C)
Method: A positive control bFGF (trafermin (genetic recombination) formulation, Fiblast(trademark) spray) approved as a therapeutic agent for pressure ulcer and skin ulcer was sprayed five times (approximately 30 μg was administered per 6 cm in diameter) to the wound site from approximately 5 cm apart according to the dose regimen. […] The test was conducted with 6 animals per group.

Molecule | time-dependent change in the percent wound area ([1]; 0.5 mM dropwise 0.04 mL per wound site once a day over 4 days, days 1-18, vs negative control (FIG. 1)) | area under the curve (AUC) of the percent wound area ([1]; 0.5 mM dropwise once a day over 4 days, vs negative control (FIG. 2)) | time dependent change in the percent wound area ([2]; pressure ulcer on right third trochanter, 0.5 mM dropwise 0.02 to 0.06 mL per wound site once a day, vs negative control (FIG. 5)) | number of days required for healing ([2]; pressure ulcer, 0.5 mM dropwise once a day, negative control 25.3 days (FIG. 6B)) | area under the curve (AUC) of the percent wound area ([2]; pressure ulcer, 0.5 mM dropwise once a day, vs negative control (FIG. 6A)) | time dependent change in the healing rate (complete healing rate) ([2]; pressure ulcer, 0.5 mM dropwise once a day, vs negative control (FIG. 6C)) | time dependent change in the percent wound area ([3]; 8 mm full thickness skin wound, 0.15 mM dropwise 0.04 mL per wound site at days 1, 2, 4, 7, 10, 14, 17, 22, vs negative control (FIG. 3)) | area under the curve (AUC) of the percent wound area ([3]; compared with negative control group (FIG. 4A)) | area under the curve (AUC) of the percent wound area ([3]; compared with positive control bFGF administration group (FIG. 4A)) | number of days required for 50% reduction in the percent wound area [3] | 75% healing rate (proportion of individuals that achieved 75% or more reduction in the percent wound area at day 14) [3]
Cc1nc(CC2CCN(c3ccc(-c4ccc(CO)cc4)cc3)CC2)nc(C(=O)NCC(=O)O)c1O [Compound A] | reduced the percent wound area at each point of evaluation, as compared with the negative control | low value as compared with AUC of the negative control group | reduced the percent wound area at each point of evaluation, as compared with the negative control | 21.5 days | low value as compared with AUC of the negative control group | significant elevation in the healing rate as compared with the negative control group | – | – | – | – | –
Cc1nc(CC2CCN(c3ccc(-c4ccc(C[C@H](C)O)cc4)cc3)CC2)nc(C(=O)NCC(=O)O)c1O [Compound B, [({5-Hydroxy-2-[(1-{4′-[(2S)-2-hydroxypropyl]biphenyl-4-yl}piperidin-4-yl)methyl]-6-methylpyrimidin-4-yl}carbonyl)amino]acetic acid] | – | – | – | – | – | – | reduced the percent wound area at each point of evaluation, as compared with the negative control | low value as compared with AUC of the negative control group | low value as compared with the positive control bFGF administration group | 9.2 days | 83.3%
bFGF: positive control bFGF (trafermin (genetic recombination) formulation, Fiblast spray) approved as a therapeutic agent for pressure ulcer and skin ulcer | – | – | – | – | – | – | – | – | – | 10.2 days | 50.0%
